From patent US20240082205A1, “USE OF PHTHALIDE COMPOUNDS IN TREATMENT OF MENINGIOMA” (EVERFRONT BIOTECH INC., priority 2020, published 2024)
In brackets after ≈: the same amount, converted by molar mass.

How the values were obtained:
IOMM-Lee cells = assay: MTT cell viability, killing meningioma cells (IOMM-Lee); assay type: cell-based, Human; conditions: IOMM-Lee grade III malignant meningioma cells, 72 hours; for IC50: Homo sapiens, read-out: IC50 (concentration to achieve 50% lethal rate)
Source text: (§1) In the following Examples, the used materials and equipment are described as below: • 1. Human meningioma cell lines: IOMM-Lee cells (purchased from ATCC; CRL-3370;
(§2) belonging to grade III malignant meningioma cells), AMGI-0102 primary culture cells (obtained by the approval according to the human subject research of Hualien Tzu Chi Hospital (Buddhist Tzu Chi Medical Foundation); belonging to grade I benign meningioma cells). • 2. […] Medium for AMGI-0102 cells: DMEM/F12 medium (Dulbecco's Modified Eagle Medium/F12 with L-glutamine, HEPES; purchased from HyClone; product number: SH30023.02) containing 10% Fetal Bovine Serum and 1% penicillin/streptomycin. • 4. Z-butylidenephthalide (Z-BP): provided by Everfront Biotech Inc.; purity 99.8%. • 5. E-butylidenephthalide (E-BP): provided by Everfront Biotech Inc.; purity 98.01%. • 6. 2-pentanolybenzoic acid (BP-OH): provided by Everfront Biotech Inc.; purity 99.6%. • 7. Sodium^2-pentanoylbenzoate (BPONa): provided by Everfront Biotech Inc.; purity 99.7%. • 8. 5-fluorouracil (5-FU): purchased from Sigma; product number: F6627. • 9. Carmustine (BCNU): purchased from Sigma; product number: SI-00400-100MG. • 10. MTIC: purchased from Biosynth Carbosynth; product number: FM26098. • 11. MTT (Thiazolyl Blue tetrazolium bromide, 3-[4,5-dimethylthiahiazo-2-yl]-2,4-dipheny-tetrazolium bromide): purchased from ALFA Aesar™; product number: L11939-000000-16AF. • 12. ELISA reader: purchased from Thermo Fisher Scientific; model number: 22662. • 13. […]
IOMM-Lee cells and AMGI-0102 cells were independently seeded in a 96-well plate (1×10^4 cells/well), and the 96-well plate was placed under an environment of 37° C. and 5% CO2 for 24 hours. After that, the cells in the 96-well plate were subjected to the following procedures: • (a) the cells in different wells were cultured with a medium containing Z-butylidenephthalide, E-butylidenephthalide, 2-pentanolybenzoic acid, or sodium^2-pentanoylbenzoate, and the 96-well plate was placed under an environment of 37° C. and 5% CO2 for 72 hours; • (b) MTT was added into each well (the final concentration is 0.5 mg/ml), and the 96-well plate was placed under an environment of 37° C. and 5% CO2 for 1.5 hours; • (c) the medium of each well was removed, and then dimethyl sulfoxide was added (100 μl/well); and • (d) an absorbance value of each well at 595 nm was measured by an ELISA reader. […]

AMGI-0102 cells = assay: MTT cell viability, killing meningioma cells (AMGI-0102); assay type: cell-based, Human; conditions: AMGI-0102 grade I benign meningioma primary culture cells, 72 hours
Source text: as §1
as §2, with “MTT (Thiazolyl Blue tetrazolium bromide, 3-[4,5-dimethylthiahiazo-2-yl]-2,4-dipheny-tetrazolium bromide): purchased from ALFA Aesar™; product number: L11939-000000-16AF. • 12.” left out

grade III meningioma = assay: Human test: tumor size by T1-weighted MRI after wafer implantation; assay type: in vivo; conditions: one subject with grade III meningioma; six wafers (75 mg Z-butylidenephthalide per wafer) implanted in resection cavity, plus oral temozolomide; up to 224 days after operation
Procedure: In this example, depending on the approval of the Research Ethics Committee Hualien Tzu Chi Hospital (Buddhist Tzu Chi Medical Foundation; SP109-04), meningioma patients were administered with Z-butylidenephthalide to observe the effects of the compounds of the present invention on inhibiting meningioma growth.
During the surgical operation for resecting meningioma in a subject (suffered with grade III meningioma), six wafers containing Z-butylidenephthalide (75 mg of Z-butylidenephthalide per wafer) were implanted into the cavity generated by resecting meningioma. The subject also took 150 mg/m^2 of body surface area/day (the first treatment course) or 200 mg/m^2 of body surface area/day (the second to sixth treatment course) of temozolomide via oral administration every day post-operation. […] On the other hand, the tumor size in the pictures of the subject's brain (at pre-operation, and post-operative days 1, 28, 84, 168, and 224), obtained by T1-weighted magnetic resonance imaging, was also calculated by using StealthStation S7 software (purchased from Medtronic company, US).

p-ERK protein = assay: Western Blotting of p-ERK protein in IOMM-Lee cells; assay type: cell-based, Human; conditions: IOMM-Lee cells, 0, 16.8 and 33.6 μg/ml, 24 hours, FIG. 1
Source text: (§3) It is known that the activations (phosphorylation) of ERK (extracellular signal-regulated kinase) protein and JNK (c-Jun N-terminal kinase) protein in the protein kinase family are related to the proliferation of tumor cells. The aforesaid facts can be found in such as: “The ERK and JNK pathways in the regulation of metabolic reprogramming ” Oncogene. 2019; 38: 2223-2240; “ERK Inhibitor LY3214996 Targets ERK Pathway-Driven Cancers: A Therapeutic Approach Toward Precision Medicine.” Mol Cancer Ther. 2020 February; 19(2):325-336; and “The novel JNK inhibitor AS602801 inhibits cancer stem cells in vitro and in vivo.” Oncotarget. 2016 May 10; 7(19):27021-32, which are entirely incorporated hereinto by reference. Therefore, if the activations of ERK protein and JNK protein in tumor cells can be reduced, the meningioma growth will be inhibited.
(§4) IOMM-Lee cells were seeded in a 10 cm culture dish ([…]), and the dish was placed under an environment of 37° C. and 5% CO2 for 24 hours. Then, the cells in different dishes were independently cultured with a medium containing Z-butylidenephthalide at concentrations of 0, 16.8 and 33.6 μg/ml. […] Finally, the expressions of the inactivated JNK protein and ERK protein, and the activated p-JNK protein and p-ERK protein in the cells were detected by Western Blotting. […]

p-JNK protein = assay: Western Blotting of p-JNK protein in IOMM-Lee cells; assay type: cell-based, Human; conditions: IOMM-Lee cells, 0, 16.8 and 33.6 μg/ml, 24 hours, FIG. 1
Source text: as §3, §4

## CCCCC(=O)c1ccccc1C(=O)[O-].[Na+] [sodium 2-pentanoylbenzoate]
IOMM-Lee cells
  IC50: 365 µg/mL

## CCC/C=C1\OC(=O)c2ccccc21 [Z-butylidenephthalide]
IOMM-Lee cells
  IC50: 33.5 µg/mL (≈ 178 µM)
AMGI-0102 cells; Homo sapiens, read-out: IC50 (concentration to achieve 50% lethal rate)
  IC50: 94.5 µg/mL (≈ 502 µM)
Grade III meningioma
  tumor size of the subject: no change in the tumor size
p-ERK protein
  expression of p-ERK protein: significantly decreased
p-JNK protein
  expression of p-JNK protein: significantly decreased

## 2-pentanolybenzoic acid
IOMM-Lee cells
  IC50 (concentration to achieve 50% lethal rate): 304.3 µg/mL
AMGI-0102 cells
  IC50 (concentration to achieve 50% lethal rate): 1286.3 µg/mL

## CCC/C=C1/OC(=O)c2ccccc21 [E-butylidenephthalide]
IOMM-Lee cells
  IC50: 306 µg/mL (≈ 1630 µM)
